These results are taken from US20160178637A1, “DETECTION OF ALPHA, BETA-DICARBONYL COMPOUNDS WITH FLUOROGENIC PROBES” (THE UNIVERSITY OF WARWICK, priority 2012, published 2016).

Data set [1] deals with human leukaemia 60 cells (HL60). Briefly: Fluorescence imaging of MG in isolated human leukaemia cells. It is filed as cell-based. Particulars: HL60 cells 1×10^5 per ml, DAF-2 10 μM 40 min 37° C., washed, 30-120 min; excitation laser 457 nm, emission filter 470-500 nm.
A short description of data set [2]: Incubation of DAF-2 with the NO donor DETA-nonoate, fluorescence. It is filed as physicochemical. The note with it: DAF-2 50 μM + DETA-nonoate 10 μM, 10 mM sodium phosphate buffer pH 7.4, 37° C., one hour. On the procedure: 4,5-Diaminofluorescein (DAF-2) was a fluorogenic probe developed for the detection of nitric oxide. 4,5-Diaminorhodamine (DAR), 8-(3,4-diaminophenyl)-2,6-bis(2-carboxyethyl)-4,4-difluoro-1,3,5,7-tetramethyl-4-bora-3a,4a-diaza-s-indacene (DAM BO-P″) and o-diaminocyanine are analogous o-diamino derivatizing agents based on different intense fluorophores. DAF-2 reacts with nitric oxide to form the fluorophore triazolofluorescein [6]. For example, incubation of DAF-2 (50 μM) with the NO donor (Z)-1-[2-(2-aminoethyl)-N-(2-ammonioethyl)amino]diazen-1-ium-1,2-diolate (DETA-nonoate), 10 μM, in 10 mM sodium phosphate buffer, pH 7.4 at 37° C., for one hour gave characteristic fluorescence of triazolofluorescein—excitation and emission maximum wavelengths of 491 and 515 nm, respectively. A further metabolite that reacts with DAF-2 is ascorbic acid which forms adducts DAF-2-DHA-5008 and DAF-2-DHA-518 which are fluorescent with excitation and emission wavelength maxima of 490 and 514 nm, respectively.

Each structure is given as a SMILES string.

`Nc1cc2c(cc1N)C1(OC2=O)c2ccc(O)cc2Oc2cc(O)ccc21` [DAF-2, 4,5-diaminofluorescein]: the “fluorescence image of endogenous MG in cells” value in data set [1] was “fluorescence indicate of the DAF-2 MG adduct”.

On to `O=C1OC2(c3ccc(O)cc3Oc3cc(O)ccc32)c2ccc3[nH]nnc3c21` [triazolofluorescein], for which, in data set [2], the emission maximum wavelength came out at 515 nm and the excitation maximum wavelength worked out at 491 nm.
